For 2 molecules, Activity results are on record in ChEMBL document CHEMBL2074494 (Biopharm Drug Dispos, 2004).

This data set concerns the target ATP-dependent translocase ABCB1 (Homo sapiens, UniProt P08183). Briefly: TP_TRANSPORTER: transepithelial transport in Caco-2 cells. The data set is classed as functional, cell-based.

Sequence of ATP-dependent translocase ABCB1 (P08183 whole entry): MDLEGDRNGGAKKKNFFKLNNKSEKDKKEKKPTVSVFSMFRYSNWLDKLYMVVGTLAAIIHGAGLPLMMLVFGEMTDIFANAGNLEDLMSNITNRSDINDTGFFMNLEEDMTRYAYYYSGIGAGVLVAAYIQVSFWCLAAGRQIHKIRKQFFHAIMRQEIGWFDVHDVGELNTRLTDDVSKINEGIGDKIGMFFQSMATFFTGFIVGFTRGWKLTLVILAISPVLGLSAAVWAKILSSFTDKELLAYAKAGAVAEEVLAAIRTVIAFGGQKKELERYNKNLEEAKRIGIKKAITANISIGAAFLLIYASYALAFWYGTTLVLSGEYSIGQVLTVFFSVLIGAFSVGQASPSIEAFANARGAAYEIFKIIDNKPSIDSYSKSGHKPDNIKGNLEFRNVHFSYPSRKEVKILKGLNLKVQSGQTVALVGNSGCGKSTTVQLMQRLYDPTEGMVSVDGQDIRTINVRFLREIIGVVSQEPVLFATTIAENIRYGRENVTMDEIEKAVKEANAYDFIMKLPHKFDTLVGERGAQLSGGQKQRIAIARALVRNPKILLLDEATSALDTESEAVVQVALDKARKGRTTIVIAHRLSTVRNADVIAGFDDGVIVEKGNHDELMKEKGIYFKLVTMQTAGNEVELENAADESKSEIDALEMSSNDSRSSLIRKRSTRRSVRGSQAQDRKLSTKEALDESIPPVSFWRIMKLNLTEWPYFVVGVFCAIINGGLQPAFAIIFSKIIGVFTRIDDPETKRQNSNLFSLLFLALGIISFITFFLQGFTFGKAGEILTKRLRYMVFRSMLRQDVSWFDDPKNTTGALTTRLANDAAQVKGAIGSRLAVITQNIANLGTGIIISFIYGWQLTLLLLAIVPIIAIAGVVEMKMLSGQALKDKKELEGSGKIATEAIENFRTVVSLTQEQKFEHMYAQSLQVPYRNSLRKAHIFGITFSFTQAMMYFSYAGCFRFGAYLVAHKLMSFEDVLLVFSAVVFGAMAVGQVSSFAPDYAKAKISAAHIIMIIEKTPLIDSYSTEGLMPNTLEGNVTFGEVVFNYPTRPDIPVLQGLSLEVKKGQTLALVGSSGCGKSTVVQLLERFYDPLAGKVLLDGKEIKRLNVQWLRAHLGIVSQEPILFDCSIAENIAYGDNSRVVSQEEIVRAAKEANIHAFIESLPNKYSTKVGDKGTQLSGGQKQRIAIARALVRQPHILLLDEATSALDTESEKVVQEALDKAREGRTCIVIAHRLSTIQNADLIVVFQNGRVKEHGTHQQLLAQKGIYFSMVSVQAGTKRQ

Take `CCC(=C(c1ccc(O)cc1)c1ccc(OCCN(C)C)cc1)c1ccccc1`: the Activity result is “is not a substrate [-]”.

With `CC/C(=C(\c1ccccc1)c1ccc(OCCN)cc1)c1ccccc1` [DESMETHYL TAMOXIFEN], the Activity result is “is not a substrate [-]”.
